Laboratory results taken from patent publication US20220193447A1, “METHODS FOR MODULATION OF AND SENSITIZATION TO SERINE AND GLYCINE LIMITATION” (Faeth Therapeutics, Inc., priority 2020, published 2022).
Where a SMILES comes first, the peptide text is derived from it. The star is where a group is joined. Cbz = O=C(OCc1ccccc1)*

Assays:
IDO1 expression [1] = assay: Immunoblotting of IDO1 in human pancreatic cancer cells; assay type: cell-based; conditions: for IDO1 protein levels: 2D or 3D culture, MG132 20 μM 16 h, bafilomycin A1 100 nM
ATF-4 response = assay: Western blots of SSP enzymes and ATF-4 response; assay type: cell-based, human; conditions: MG-132 10 μM
Experimental: Protein lysates were processed in RIPA-buffer supplemented with phosphatase inhibitor cocktail and complete protease inhibitors. Lysates were separated using precast NuPAGE 4-12% Bis-Tris Protein gels and transferred to nitrocellulose membranes. Following incubation with primary antibodies, appropriate secondary antibodies were used to detect the proteins. Westerns scanned using the Odyssey CLx or visualized using ECL chemiluminescence detection kits.
Cells were grown for 24 hours in −SG medium or CM and treated with 10 μM PH755 diluted in DMSO or DMSO alone. To evaluate protein synthesis, puromycin (final concentration: 90 μM) was added to each well 10 minutes prior harvesting the cells for western blot analysis, except in the negative control well. Where indicated, cells grown in CM medium were treated with cycloheximide (10 μg/mL) for the last 5 hours providing a control for translation inhibition. Incorporation of puromycin into newly synthesized proteins was assessed by Western blot using an anti-puromycin antibody. To assess the accumulation of short-lived proteins in response to proteasome inhibition, cells grown in −SG medium or CM plus or minus 10 μM PH755 for 24 hours were treated for the last 6 hours with the proteasome inhibitor MG-132 (10 μM) before harvesting the cells for western blot analysis.

KPC cells = assay: KPC cell proliferation with or without serine; assay type: cell-based, mouse; conditions: epacadostat 1 μM, −Serine medium, 5 days
Experimental: KPC cells (tumor cells derived from a pancreatic tumor of a Kras' p53″^t genetically engineered mouse) were seeded into 24-well plates and allowed to adhere overnight. […] Cell number was recorded every 24 h for 5 days. A time zero plate was used to calculate the starting cell number.

HT-29 and HCT116 cells = conditions: supplement alone (1 mM sodium formate or 0.4 mM glycine)
Experimental: Cells (2×10^4 to 3×10^4 cells/well depending on the cell lines) were plated in 24-well plates in their regular medium. […] For the counting step, cells were trypsinized, suspended in PBS-EDTA, and counted with a CASY Model TT Cell Counter. Relative cell number at each time point was calculated based on the number of cells measured before the medium change.

IDO1 expression [2] = assay: Immunoblotting of IDO1 in KPC cells; assay type: cell-based, mouse

CC(C)(C)c1nc2c3cc[nH]c(=O)c3c3cc(F)ccc3c2[nH]1 [JAKi]
up-regulation of IDO1 protein levels in AI-grown cells (IDO1 expression [1]; CFPAC-1 or HPAF-II cells, JAKi 1 μM, 16 h): blocked

CC(C)C[C@@H](C=O)NC(=O)[C@H](CC(C)C)NC(=O)[C@H](CC(C)C)NC(=O)OCc1ccccc1 [MG-132] (Cbz-Leu-Leu-Leu-aldehyde)
ATF-4 protein level (ATF-4 response; cells in complete medium): strong accumulation of ATF-4
ATF-4 protein levels and ASNS, PSAT expression (ATF-4 response; cells in −SG medium plus PH755): no restoration of ATF-4 protein levels
IDO1 protein levels (IDO1 expression [1]): no effect on IDO1 protein levels

CO/C1=C\C(C)=C\[C@@H](C)[C@@H](O)[C@@H](C)C/C(C)=C/C=C/[C@H](OC)[C@@H]([C@@H](C)[C@@H](O)[C@H](C)[C@@]2(O)C[C@@H](O)[C@H](C)[C@@H](C(C)C)O2)OC1=O [bafilomycin, bafilomycin A1]
IDO1 protein levels (IDO1 expression [1]): no effect on IDO1 protein levels

NS(=O)(=O)NCCNc1nonc1C(=NO)Nc1ccc(F)c(Br)c1 [epacadostat]
antiproliferative effect of serine starvation (KPC cells): enhances the antiproliferative effect

O=C[O-].[Na+] [formate, sodium formate]
growth of −SG plus PH755 treated cells (HT-29 and HCT116 cells): did not restore growth

NCC(=O)O [glycine]
growth of −SG plus PH755 treated cells (HT-29 and HCT116 cells): did not restore growth

human form of IFNγ: human cytokine IFNγ, canonical activator of IDO1
IDO1 expression (IDO1 expression [1]; panel of human pancreatic cancer cells, IFNγ 1 ng/ml, 24 h): consistently increased IDO1 expression
IDO1 expression (IDO1 expression [2]; murine cells, human form of IFNγ): did not impact IDO1 expression in murine cells

B1: murine form of cytokine IFNγ: murine cytokine IFNγ, a canonical activator of IDO1 (protein, UniProt P01580 23-155, looked up)
Interferon gamma: HGTVIESLESLNNYFNSSGIDVEEKSLFLDIWRNWQKDGDMKILQSQIISFYLRLFEVLKDNQAISNNISVIESHLITTFFSNSKAKKDAFMSIAKFEVNNPQVQRQAFNELIRVVHQLLPESSLRKRKRSRC
IDO1 expression (IDO1 expression [2]; KPC cells, murine IFNγ 1 ng/ml, 24 h): increased IDO1 expression in vitro
